Literature values as cited in US6872523B1, “Materials and methods for molecular detection of clinically relevant pathogenic fungal species” (The Board of Regents of the University of Nebraska, priority 2000, dated 2005).

Legend:
[1] = system: A. fumigatus; details: low end of the reported MIC range
[2] = system: A. niger; details: low end of the reported MIC range
[3] = system: A. nidulans; details: high end of the reported MIC range
[4] = system: A. terreus isolates; details: share of A. terreus isolates resistant to AmB (refs 10, 17, 22)
[5] = system: A. flavus; details: high end of the reported MIC range

AmB MIC [1]: 0.5 µg/mL
AmB MIC [2]: 0.5 µg/mL
AmB MIC [3]: 16 µg/mL
AmB MIC [5]: 16 µg/mL
SMILES: C[C@@H]1[C@H](O)[C@@H](C)/C=C/C=C/C=C/C=C/C=C/C=C/C=C/[C@H](O[C@@H]2O[C@H](C)[C@@H](O)[C@H](N)[C@@H]2O)C[C@@H]2O[C@](O)(C[C@@H](O)C[C@@H](O)[C@H](O)CC[C@@H](O)C[C@@H](O)CC(=O)O[C@H]1C)C[C@H](O)[C@H]2C(=O)O [AmB, amphotericin B]
isolates reported as resistant [4]: over 95%
